Measurements published in ChEMBL document CHEMBL5346954, “Rational Design of RNA Demethylase FTO Inhibitors with Enhanced Antileukemia Drug-Like Properties” (J Med Chem, 2023).
≈ marks a conversion by molar mass, not a printed value. Calls of active or inactive are those of the source. The calls are words filed in the database; no cut-off is given here.

Assays:
[1] = target: T1, Alpha-ketoglutarate-dependent dioxygenase FTO (Homo sapiens, UniProt Q9C0B1); assay: Inhibition of FTO (unknown origin)
Target sequence in this assay (Q9C0B1 whole entry): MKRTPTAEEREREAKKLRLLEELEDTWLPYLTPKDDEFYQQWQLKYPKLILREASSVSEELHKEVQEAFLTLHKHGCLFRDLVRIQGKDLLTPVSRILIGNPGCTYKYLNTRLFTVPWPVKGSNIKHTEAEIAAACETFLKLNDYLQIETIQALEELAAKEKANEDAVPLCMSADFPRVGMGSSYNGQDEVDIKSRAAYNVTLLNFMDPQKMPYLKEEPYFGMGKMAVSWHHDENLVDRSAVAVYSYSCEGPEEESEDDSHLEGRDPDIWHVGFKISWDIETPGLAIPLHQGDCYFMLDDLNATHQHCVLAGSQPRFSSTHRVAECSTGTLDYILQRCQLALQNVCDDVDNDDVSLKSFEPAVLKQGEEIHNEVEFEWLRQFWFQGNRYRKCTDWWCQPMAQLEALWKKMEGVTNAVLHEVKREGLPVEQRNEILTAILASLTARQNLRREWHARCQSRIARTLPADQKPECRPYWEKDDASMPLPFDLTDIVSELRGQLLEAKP

MOLM-13 [2] = assay: Antiproliferative activity against human MOLM-13 cells incubated for 72 hrs by CCK8 assay; format: functional, cell-based; settings: MOLM-13, 72 h
NB-4 [3] = assay: Antiproliferative activity against human NB4 cells incubated for 72 hrs by CCK8 assay; format: functional, cell-based; settings: NB-4, 72 h
[4] = Solubility of the compound in PBS at pH 7.4; format: physicochemical
[5] = Permeability of the compound by PAMPA; format: ADME; settings: read-out: permeability
[6] = target: T2, Alpha-ketoglutarate-dependent dioxygenase alkB homolog 3 (Homo sapiens) (UniProt Q96Q83); assay: Inhibition of ALKBH3 (unknown origin)
T2 sequence (whole entry): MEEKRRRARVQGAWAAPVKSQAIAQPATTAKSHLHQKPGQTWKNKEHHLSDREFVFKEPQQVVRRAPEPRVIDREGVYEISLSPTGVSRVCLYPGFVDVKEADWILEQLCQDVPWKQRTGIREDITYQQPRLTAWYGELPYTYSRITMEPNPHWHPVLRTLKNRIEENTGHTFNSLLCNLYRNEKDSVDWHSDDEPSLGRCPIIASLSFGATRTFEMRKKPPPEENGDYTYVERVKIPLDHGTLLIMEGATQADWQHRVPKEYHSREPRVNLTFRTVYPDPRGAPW

[7] = target: RNA demethylase ALKBH5 (Homo sapiens) (UniProt Q6P6C2); assay: Inhibition of ALKBH5 (unknown origin)
HEL = assay: Antiproliferative activity against HEL cells incubated for 72 hrs by CCK8 assay; format: functional, cell-based; settings: Homo sapiens
KG-1 = assay: Antiproliferative activity against human KG-1 cells incubated for 72 hrs by CCK8 assay; format: functional, cell-based; settings: KG-1, 72 h
MV4-11 [8] = assay: Antiproliferative activity against human MV4-11 cells incubated for 72 hrs by CCK8 assay; format: functional, cell-based; settings: MV4-11, 72 h
THP-1 = assay: Antiproliferative activity against human THP-1 cells incubated for 72 hrs by CCK8 assay; format: functional, cell-based; settings: THP-1, 72 h
[9] = target: T1, Alpha-ketoglutarate-dependent dioxygenase FTO; assay: Inhibition of FTO (unknown origin) using (5'-AUUGUCA(M6A)CAGCAGC-3') as substrate incubated for 2 hrs by dot-blot assay
Target sequence in this assay (Q9C0B1 whole entry): as the sequence (Q9C0B1 whole entry) above

[10] = target: T1, Alpha-ketoglutarate-dependent dioxygenase FTO; assay: Inhibition of FTO (unknown origin) by PAGE based assay
Target sequence in this assay (Q9C0B1 whole entry): as the sequence (Q9C0B1 whole entry) above

NB-4 [11] = assay: Inhibition of colony formation in human NB4 cells incubated for 14 days by nitroblue tetrazolium chloride staining based assay; format: functional, cell-based; settings: time 14.0 day
MOLM-13 [12] = assay: Inhibition of colony formation in human MOLM-13 cells incubated for 14 days by nitroblue tetrazolium chloride staining based assay; format: functional, cell-based; settings: time 14.0 day
[13] = target: T1, Alpha-ketoglutarate-dependent dioxygenase FTO; assay: Inhibition of FTO in human NB4 cells assessed as increase in abundance of m6A on RNA at 5 to 20 uM incubated for 48 hrs by dot-blot assay; format: cell-based; settings: dose 5-20 µM
Target sequence in this assay (Q9C0B1 whole entry, looked up): as the sequence (Q9C0B1 whole entry) above

[14] = target: T1, Alpha-ketoglutarate-dependent dioxygenase FTO; assay: Inhibition of FTO in human MOLM-13 cells assessed as increase in abundance of m6A on RNA at 5 to 20 uM incubated for 48 hrs by dot-blot assay; format: cell-based; settings: dose 5-20 µM
Target sequence in this assay (Q9C0B1 whole entry, looked up): as the sequence (Q9C0B1 whole entry) above

[15] = target: T1, Alpha-ketoglutarate-dependent dioxygenase FTO; assay: Inhibition of FTO in human MOLM-13 cells assessed as upregulation RARA RNA level at 5 to 10 uM incubated for 72 hrs by RT-qPCR analysis; format: cell-based; settings: dose 5-10 µM
Target sequence in this assay (Q9C0B1 whole entry, looked up): as the sequence (Q9C0B1 whole entry) above

[16] = target: T1, Alpha-ketoglutarate-dependent dioxygenase FTO; assay: Inhibition of FTO in human MOLM-13 cells assessed as downregulation Myc RNA level at 5 to 10 uM incubated for 72 hrs by RT-qPCR analysis; format: cell-based; settings: dose 5-10 µM
Target sequence in this assay (Q9C0B1 whole entry, looked up): as the sequence (Q9C0B1 whole entry) above

[17] = target: T1, Alpha-ketoglutarate-dependent dioxygenase FTO; assay: Inhibition of FTO in human MOLM-13 cells assessed as upregulation RARA protein level at 5 to 10 uM incubated for 48 hrs by Western blot analysis; format: cell-based; settings: dose 5-10 µM
Target sequence in this assay (Q9C0B1 whole entry, looked up): as the sequence (Q9C0B1 whole entry) above

[18] = target: T1, Alpha-ketoglutarate-dependent dioxygenase FTO; assay: Inhibition of FTO in human MOLM-13 cells assessed as downregulation Myc protein level at 5 to 10 uM incubated for 48 hrs by Western blot analysis; format: cell-based; settings: dose 5-10 µM
Target sequence in this assay (Q9C0B1 whole entry, looked up): as the sequence (Q9C0B1 whole entry) above

[19] = Metabolic stability in human liver microsomes assessed as half life; format: ADME, Microsome
[20] = Metabolic stability in mouse liver microsomes assessed as half life; format: ADME, Microsome
[21] = Metabolic stability in human liver microsomes assessed as intrinsic clearance per mg of protein; format: ADME, Microsome; settings: read-out: CLH
[22] = Metabolic stability in mouse liver microsomes assessed as intrinsic clearance per mg of protein; format: ADME, Microsome; settings: read-out: CLH
[23] = Tmax in ICR mouse at 1 mg/kg, iv measured upto 24 hrs by LC-MS/MS analysis; format: ADME, organism-based; settings: in vivo
[24] = Tmax in ICR mouse at 10 mg/kg, po measured upto 24 hrs by LC-MS/MS analysis; format: ADME, organism-based; settings: in vivo
[25] = Cmax in ICR mouse at 1 mg/kg, iv measured upto 24 hrs by LC-MS/MS analysis; format: ADME, organism-based; design: time < 24 hrs, dose 1 mg/kg, route iv; settings: in vivo
[26] = Cmax in ICR mouse at 10 mg/kg, po measured upto 24 hrs by LC-MS/MS analysis; format: ADME, organism-based; design: dose 10 mg/kg, time < 24 hrs, route po; settings: in vivo
[27] = AUC(0 to t) in ICR mouse at 1 mg/kg, iv measured upto 24 hrs by LC-MS/MS analysis; format: ADME, organism-based; design: time < 24 hrs, dose 1 mg/kg, route iv; settings: in vivo
[28] = AUC(0 to t) in ICR mouse at 10 mg/kg, po measured upto 24 hrs by LC-MS/MS analysis; format: ADME, organism-based; design: dose 10 mg/kg, time < 24 hrs, route po; settings: in vivo
[29] = AUC(0 to infinity) in ICR mouse at 1 mg/kg, iv measured upto 24 hrs by LC-MS/MS analysis; format: ADME, organism-based; design: dose 1 mg/kg, time < 24 hrs, route iv; settings: in vivo
[30] = AUC(0 to infinity) in ICR mouse at 10 mg/kg, po measured upto 24 hrs by LC-MS/MS analysis; format: ADME, organism-based; design: time < 24 hrs, dose 10 mg/kg, route po; settings: in vivo
[31] = Oral bioavailability in ICR mouse at 10 mg/kg measured upto 24 hrs by LC-MS/MS analysis; format: ADME, organism-based; settings: in vivo
MV4-11 [32] = assay: Antitumor activity against human MV4-11 cells xenografted in BALB/c mouse assessed as reduction in tumor volume at 40 mg/kg, ip administered daily for 26 days; format: functional, organism-based; settings: time 26.0 day
MV4-11 [33] = assay: Antitumor activity against human MV4-11 cells xenografted in BALB/c mouse assessed as reduction in tumor weight at 40 mg/kg, ip administered daily for 26 days; format: functional, organism-based; settings: time 26.0 day
[34] = Toxicity in BALB/c mouse xenografted with human MV4-11 cells assessed as body weight loss at 40 mg/kg, ip administered daily for 26 days; format: organism-based; settings: in vivo, 624 h, time 26 day
Mus musculus = assay: In vivo inhibition of FTO in human MV4-11 cells xenografted in BALB/c mouse assessed as increase in m6A abundance at 40 mg/kg, ip administered daily for 26 days; format: functional, organism-based; settings: time 26.0 day

Sequence of RNA demethylase ALKBH5 (Homo sapiens) (Q6P6C2 2-394 limits assumed): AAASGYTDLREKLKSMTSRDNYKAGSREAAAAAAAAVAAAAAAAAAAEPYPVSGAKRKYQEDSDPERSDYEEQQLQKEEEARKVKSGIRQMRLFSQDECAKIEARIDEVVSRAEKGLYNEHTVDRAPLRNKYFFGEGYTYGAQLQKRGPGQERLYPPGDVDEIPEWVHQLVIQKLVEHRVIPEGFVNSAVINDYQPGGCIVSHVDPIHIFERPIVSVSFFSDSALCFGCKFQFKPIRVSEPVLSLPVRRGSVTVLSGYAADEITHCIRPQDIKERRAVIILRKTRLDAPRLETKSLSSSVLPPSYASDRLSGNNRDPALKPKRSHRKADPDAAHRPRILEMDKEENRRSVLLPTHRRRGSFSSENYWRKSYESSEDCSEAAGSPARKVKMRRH

Cc1n[nH]c(C)c1-c1cc(Cl)c(Nc2cccc(CN3CCCOCC3)c2C(=O)O)c(Cl)c1
IC50 [1]: 4000 nM | IC50 (MOLM-13 [2]): 1500 nM | IC50 (NB-4 [3]): 1000 nM | solubility [4]: 18.1 µM (≈ 8.86 µg/mL) | Papp [5]: 4.5 ×10⁻⁶ cm/s

CCc1cc(-c2ccncc2)cc(CC)c1Nc1cccc(CN(CCOC)CCOC)c1C(=O)O
IC50 [1]: 6300 nM

CCc1cc(-c2ccncc2)cc(CC)c1Nc1cccc(CN(CC)CC)c1C(=O)O
IC50 [1]: 7600 nM

CCc1cc(-c2ccncc2)cc(CC)c1Nc1cccc(CN2CC(N(C)C)C2)c1C(=O)O
IC50 (MOLM-13 [2]): 1500 nM | IC50 (NB-4 [3]): 1000 nM

Cc1noc(C)c1-c1c(F)c(F)c(Nc2cccc(CN3CCCOCC3)c2C(=O)O)c(F)c1F
IC50 (MOLM-13 [2]): 1500 nM | IC50 (NB-4 [3]): 1000 nM

CCc1cc(-c2c(C)noc2C)cc(CC)c1Nc1cccc(CN2CCCOCC2)c1C(=O)O
IC50 (MOLM-13 [2]): 1500 nM | IC50 (NB-4 [3]): 1000 nM

Cc1noc(C)c1-c1cc(F)c(Nc2cccc(CN3CCCOCC3)c2C(=O)O)c(F)c1F
IC50 (MOLM-13 [2]): 1500 nM | IC50 (NB-4 [3]): 1000 nM

Cc1noc(C)c1-c1cc(Cl)c(Nc2cccc(CN3CCCOCC3)c2C(=O)O)c(C(F)(F)F)c1
IC50 [1]: 6100 nM | IC50 (MOLM-13 [2]): 2200 nM | IC50 (NB-4 [3]): 2300 nM | solubility [4]: 42.6 µM (≈ 22.3 µg/mL) | Papp [5]: 14.1 ×10⁻⁶ cm/s

O=C(O)c1c(CN2CCCOCC2)cccc1Nc1c(Cl)cc(-c2nnn[nH]2)cc1Cl
solubility [4]: 305 µM (≈ 141 µg/mL) | Papp [5]: < 0.001 ×10⁻⁶ cm/s

CCc1cc(-c2ccncc2)cc(CC)c1Nc1cccc(Cn2ccnc2)c1C(=O)O
IC50 [1]: 6500 nM

O=C(O)c1c(CN2CCCOCC2)cccc1Nc1c(C2CC2)cc(-c2ccncc2)cc1C1CC1
IC50 [1]: 2600 nM

Cc1noc(C)c1-c1cc(Cl)c(Nc2cccc(CN3CCCOCC3)c2C(=O)O)c(C2CC2)c1
IC50 [1]: 2300 nM | inhibition [6]: inactive | inhibition [7]: inactive | IC50 (HEL): 10300 nM | IC50 (KG-1): 4100 nM | IC50 (MOLM-13 [2]): 1700 nM | IC50 (MV4-11 [8]): 3400 nM | IC50 (NB-4 [3]): 1500 nM | IC50 (THP-1): 6000 nM | IC50 [9]: 120 nM | IC50 [10]: 2300 nM | inhibition (NB-4 [11]): Dose-Dependent Effect | inhibition (MOLM-13 [12]): Dose-Dependent Effect | inhibition [13]: Active | inhibition [14]: Active | inhibition [15]: Active | inhibition [16]: Active | inhibition [17]: Active | inhibition [18]: Active | solubility [4]: 7.6 µM (≈ 3.77 µg/mL) | Papp [5]: 21.4 ×10⁻⁶ cm/s | half-life [19]: 1.53 h | half-life [20]: > 3.08 h | microsomal CLint [21]: 15.1 µL/min/mg | microsomal CLint [22]: 13.3 µL/min/mg | Tmax [23]: 2.5 h | Tmax [24]: 0.5 h | Cmax [25]: 3700 ng/mL | Cmax [26]: 7200 ng/mL | AUC(0-t) at 24 h [27]: 46200 ng·h/mL | AUC(0-t) at 24 h [28]: 80500 ng·h/mL | AUC(0-inf) [29]: 55600 ng·h/mL | AUC(0-inf) [30]: 103000 ng·h/mL | bioavailability [31]: 18.5% | Activity (MV4-11 [32]): Active | Activity (MV4-11 [33]): Active | Activity [34]: Non-Toxic | inhibition (Mus musculus): Active

Cc1noc(C)c1-c1cc(F)c(Nc2ccccc2C(=O)O)c(Cl)c1
solubility [4]: 275 µM (≈ 99.1 µg/mL) | Papp [5]: 17.4 ×10⁻⁶ cm/s | half-life [19]: > 3.08 h | half-life [20]: 1.76 h | microsomal CLint [21]: < 7.5 µL/min/mg | microsomal CLint [22]: < 7.5 µL/min/mg | Tmax [23]: 1.5 h | Tmax [24]: 1 h | Cmax [25]: 5400 ng/mL | Cmax [26]: 8500 ng/mL | AUC(0-t) at 24 h [27]: 36200 ng·h/mL | AUC(0-t) at 24 h [28]: 63600 ng·h/mL | AUC(0-inf) [29]: 39200 ng·h/mL | AUC(0-inf) [30]: 68800 ng·h/mL | bioavailability [31]: 17.5%

CCc1cc(-c2ccncc2)cc(CC)c1Nc1cccc(CN2CCCOCC2)c1C(=O)O
IC50 (MOLM-13 [2]): 1500 nM | IC50 (NB-4 [3]): 1000 nM

CCc1cc(-c2ccncc2)cc(CC)c1Nc1cccc(CN(CC)CCN2CCOCC2)c1C(=O)O
IC50 [1]: 6800 nM
